In ChEMBL document CHEMBL4004782, “A review on tacrine-based scaffolds as multi-target drugs (MTDLs) for Alzheimer's disease” (Eur J Med Chem, 2017):

What was measured:
[1] = target: T1, Acetylcholinesterase (Bos taurus) (UniProt P23795); test: Displacement of propidium iodide from bovine erythrocyte AchE at 0.3 uM incubated for 6 hrs followed by addition of propidium iodide and measured after 15 mins by thioflavin T-fluorescence assay
T1 sequence (whole entry): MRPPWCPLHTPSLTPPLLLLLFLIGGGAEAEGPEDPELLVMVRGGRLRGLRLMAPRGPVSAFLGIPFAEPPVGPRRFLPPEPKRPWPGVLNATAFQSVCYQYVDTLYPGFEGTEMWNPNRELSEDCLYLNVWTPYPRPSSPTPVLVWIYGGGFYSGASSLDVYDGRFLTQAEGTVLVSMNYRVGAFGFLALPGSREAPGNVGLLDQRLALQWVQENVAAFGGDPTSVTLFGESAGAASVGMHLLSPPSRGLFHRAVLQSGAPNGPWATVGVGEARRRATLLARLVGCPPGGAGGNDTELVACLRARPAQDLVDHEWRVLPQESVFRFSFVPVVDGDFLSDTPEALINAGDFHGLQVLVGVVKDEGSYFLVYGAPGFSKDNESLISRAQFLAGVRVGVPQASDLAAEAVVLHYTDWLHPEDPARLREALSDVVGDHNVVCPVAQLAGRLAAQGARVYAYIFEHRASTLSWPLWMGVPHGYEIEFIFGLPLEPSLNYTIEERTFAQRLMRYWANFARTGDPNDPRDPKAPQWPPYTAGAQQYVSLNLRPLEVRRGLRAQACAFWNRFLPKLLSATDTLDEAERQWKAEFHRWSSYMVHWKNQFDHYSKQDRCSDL

[2] = target: T1, Acetylcholinesterase (Bos taurus); test: Displacement of propidium iodide from bovine erythrocyte AchE at 1 uM incubated for 6 hrs followed by addition of propidium iodide and measured after 15 mins by thioflavin T-fluorescence assay
[3] = target: T1, Acetylcholinesterase (Bos taurus); test: Displacement of propidium iodide from bovine erythrocyte AchE at 3 uM incubated for 6 hrs followed by addition of propidium iodide and measured after 15 mins by thioflavin T-fluorescence assay
[4] = target: T2, Acetylcholinesterase (Rattus norvegicus, UniProt P37136); test: Inhibition of rat cortex AchE using acetylthiocholine iodide as substrate by Ellman's method
T2 sequence (P37136 whole entry): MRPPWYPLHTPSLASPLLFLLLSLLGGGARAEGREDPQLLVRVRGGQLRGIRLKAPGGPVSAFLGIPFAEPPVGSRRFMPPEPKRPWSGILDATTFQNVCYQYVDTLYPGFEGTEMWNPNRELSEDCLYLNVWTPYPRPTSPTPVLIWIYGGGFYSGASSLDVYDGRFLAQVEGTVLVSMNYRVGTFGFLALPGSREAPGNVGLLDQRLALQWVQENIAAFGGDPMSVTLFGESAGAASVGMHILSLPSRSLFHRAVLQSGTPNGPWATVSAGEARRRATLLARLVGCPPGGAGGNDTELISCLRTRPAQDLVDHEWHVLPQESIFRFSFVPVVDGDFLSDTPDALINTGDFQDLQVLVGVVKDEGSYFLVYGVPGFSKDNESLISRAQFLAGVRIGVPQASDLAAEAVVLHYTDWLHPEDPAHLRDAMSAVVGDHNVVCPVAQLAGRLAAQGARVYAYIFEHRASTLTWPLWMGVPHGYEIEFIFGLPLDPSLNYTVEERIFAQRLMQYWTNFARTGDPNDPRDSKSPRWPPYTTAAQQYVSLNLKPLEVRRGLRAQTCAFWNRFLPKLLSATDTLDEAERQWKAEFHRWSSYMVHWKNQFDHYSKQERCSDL

[5] = Selectivity index, ratio of IC50 for human serum BChE to IC50 for rat cortex AchE
[6] = target: Acetylcholinesterase (Homo sapiens, UniProt P22303); test: Inhibition of human AchE-induced amyloid beta (1 to 40) aggregation after 48 hrs by thioflavin T fluorescence spectroscopic method
[7] = target: T3, Acetylcholinesterase (Bos taurus, UniProt P23795); test: Inhibition of bovine erythrocyte AchE using acetylthiocholine as substrate by Ellman's method
T3 sequence (P23795 whole entry): T1 sequence (whole entry)

[8] = target: Cholinesterase (Homo sapiens, UniProt P06276); test: Inhibition of BuChE (unknown origin)
Chain of Cholinesterase (P06276 whole entry): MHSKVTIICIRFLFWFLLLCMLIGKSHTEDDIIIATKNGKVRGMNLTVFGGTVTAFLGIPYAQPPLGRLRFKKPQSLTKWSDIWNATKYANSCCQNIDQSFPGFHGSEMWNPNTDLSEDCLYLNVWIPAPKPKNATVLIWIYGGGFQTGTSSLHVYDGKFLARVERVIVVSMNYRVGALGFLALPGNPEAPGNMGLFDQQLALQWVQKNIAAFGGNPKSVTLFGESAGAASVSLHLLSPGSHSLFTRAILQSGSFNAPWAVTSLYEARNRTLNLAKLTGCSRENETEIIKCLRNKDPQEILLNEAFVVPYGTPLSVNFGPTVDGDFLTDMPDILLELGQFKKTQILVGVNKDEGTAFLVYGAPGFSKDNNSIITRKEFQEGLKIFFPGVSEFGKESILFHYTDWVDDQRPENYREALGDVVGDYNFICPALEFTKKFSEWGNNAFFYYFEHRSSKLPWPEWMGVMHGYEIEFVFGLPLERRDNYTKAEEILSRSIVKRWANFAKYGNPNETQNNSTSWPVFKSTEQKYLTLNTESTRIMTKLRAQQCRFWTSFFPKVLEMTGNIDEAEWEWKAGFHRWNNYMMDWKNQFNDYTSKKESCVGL

Chain of Acetylcholinesterase (Homo sapiens, UniProt P22303) (P22303 whole entry): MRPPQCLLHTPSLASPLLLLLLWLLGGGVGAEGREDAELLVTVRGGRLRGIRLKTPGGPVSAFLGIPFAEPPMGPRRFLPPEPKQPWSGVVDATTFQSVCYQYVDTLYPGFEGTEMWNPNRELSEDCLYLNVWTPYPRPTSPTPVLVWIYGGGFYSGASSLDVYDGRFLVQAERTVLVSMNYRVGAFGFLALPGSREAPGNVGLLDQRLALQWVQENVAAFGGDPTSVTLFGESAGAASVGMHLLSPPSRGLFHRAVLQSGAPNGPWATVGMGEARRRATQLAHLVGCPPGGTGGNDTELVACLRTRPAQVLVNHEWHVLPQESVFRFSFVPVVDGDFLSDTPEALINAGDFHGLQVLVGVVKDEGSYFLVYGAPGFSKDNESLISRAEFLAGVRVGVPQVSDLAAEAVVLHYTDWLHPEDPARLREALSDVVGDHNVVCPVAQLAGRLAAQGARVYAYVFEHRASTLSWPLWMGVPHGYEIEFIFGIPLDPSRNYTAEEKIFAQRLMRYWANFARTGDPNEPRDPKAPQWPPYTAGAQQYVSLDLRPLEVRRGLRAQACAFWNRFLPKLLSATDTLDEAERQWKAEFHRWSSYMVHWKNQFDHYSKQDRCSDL

Work on O=C(CCCCCCNc1c2c(nc3cc(Cl)ccc13)CCCC2)NCCc1c[nH]c2ccccc12 yielded an inhibition [1] of 42%, an inhibition [2] of 34% and an inhibition [3] of 35%.

Compound Clc1ccc2c(NCCCCCCCCNc3c4c(nc5ccccc35)CCCC4)c3c(nc2c1)CCCC3 has an IC50 [4] of 0.07 nM and a Ratio IC50 [5] of 371.

With Clc1ccc2c(NCCCCCCCCCNc3c4c(nc5c3CCCC5)CCCC4)c3c(nc2c1)CCCC3 the IC50 [4] was 0.3 nM and the Ratio IC50 [5] was 647.

O=C(CCCC1CCSS1)NCCCNc1c2c(nc3cc(Cl)ccc13)CCCC2 (stereo not given) showed an IC50 [6] of 253 nM.

For O=C(CCCCCNc1c2c(nc3ccccc13)CCCC2)NCCc1c[nH]c2ccccc12, the IC50 [7] was 1 nM, the inhibition [1] was 42% and the inhibition [2] was 34%. It also gave an inhibition [3] of 35%.

With c1ccc2c(NCCCCCCCCNc3c4c(nc5c3CCCC5)CCCC4)c3c(nc2c1)CCCC3 the IC50 [4] was 0.2 nM and the Ratio IC50 [5] was 221.

Cc1c(C)c2c(c(C)c1O)CCC(C)(C(=O)NCCCCCCCCNc1c3c(nc4cc(Cl)ccc14)CCCC3)O2 (stereo not given) gave an IC50 [8] of 54 nM.
